Data on three molecules can be found in ChEMBL document CHEMBL1133959, “Syntheses and preliminary pharmacological evaluation of the two epimers of the 5-F2t-isoprostane” (2001).

Assay type in all cases: functional
The species entered for test [1] is Rattus norvegicus. The test can be described thus: Compound was tested for maximal contraction of rat thoracic aorta.
The species named for test [2] is Rattus norvegicus. The test can be described thus: Effect of compound on rat thoracic aorta constriction in rat.
The species entered for test [3] is Rattus norvegicus. The test can be described thus: Effect of compound on rat thoracic aorta constriction in rat at 10e-5 M concentration; No effect.

Calls of active or inactive are those of the source. The calls are words filed in the database; no cut-off is given here.

In the test filed under Rattus norvegicus [1], `CCCCC[C@H](O)/C=C/[C@H]1C2CC(CO2)[C@@H]1C/C=C\CCCC(=O)O` (some centres undefined) registered a maximal response (Emax) of 189%. Also, the pD2 in the test filed under Rattus norvegicus [2] was 7.8.

In the case of `CCCCC/C=C\C[C@@H]1[C@H](/C=C/[C@@H](O)CCCC(=O)OC)[C@@H](O)C[C@H]1O`, the pD2 entry in the test listed under Rattus norvegicus [3] was “inactive”.

`CCCCC/C=C\C[C@@H]1[C@H](/C=C/[C@H](O)CCCC(=O)OC)[C@@H](O)C[C@H]1O`: the pD2 result in the test listed under Rattus norvegicus [3] is “inactive”.
